Results: patent US10364256B2 (GlaxoSmithKline Intellectual Property Development Limited, priority 2015, dated 2019)
Read-outs that look alike come from different tables or passages of the source.

Experiments:
[1] = test system: NQO1 specific enzyme activity in BEAS-2B cells (marker for NRF2 activation); experiment: BEAS-2B NQO1 MTT Assay; type: cell-based; conditions: Homo sapiens, compound incubated 48 hours, read-out: EC50 (NQO1 specific enzyme activity induction)
Method in brief: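 BEAS-2B cells treated with compound for 48 h at 37 °C, then lysed; NQO1 activity in lysates measured kinetically by MTT reduction at A570 over 30 min. pEC50 from 3-parameter fit of ΔOD/min versus log concentration; lysate also taken for Cell Titer Glo.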

[2] = molecular target: T1, Keap1 Kelch domain (321-609) / TAMRA-labeled 16mer NRF2 peptide (ETGE motif) (Homo sapiens, UniProt Q14145); experiment: NRF2-Keap1 FP Assay (Keap1 Kelch fluorescence polarization); type: binding; conditions: 20 nM Keap1 (321-609), 8 nM Tamra labeled peptide
T1 construct: the Kelch domain (321-609) of Keap1 is used
Method in brief: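 Compound dilutions (3-fold) were incubated 1 hr at room temperature with 20 nM Keap1 Kelch (321-609) and 8 nM TAMRA-labeled ETGE 16mer peptide. Buffer was 50 mM Tris pH 8.0, 100 mM NaCl, 5 mM MgCl2, 1 mM DTT, 2 mM CHAPS, 0.005% BSA. Fluorescence polarization (mP) was normalized to controls and fitted with a four-parameter equation to give pIC50.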

T1 sequence (Q14145 321-609): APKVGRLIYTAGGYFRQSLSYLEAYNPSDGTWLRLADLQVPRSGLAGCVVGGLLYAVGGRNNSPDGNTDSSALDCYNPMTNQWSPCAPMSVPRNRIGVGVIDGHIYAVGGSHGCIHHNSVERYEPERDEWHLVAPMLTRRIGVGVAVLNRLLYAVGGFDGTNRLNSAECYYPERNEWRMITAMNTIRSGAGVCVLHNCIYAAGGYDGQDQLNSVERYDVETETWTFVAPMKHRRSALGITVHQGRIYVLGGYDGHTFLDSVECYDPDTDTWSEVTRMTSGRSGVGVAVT

SMILES | IC50 [2] [nM] | EC50 [1] [nM] | EC50 ([1]; BEAS-2B, 48 h) [nM]
Cn1cc(C2CC2c2c(C(=O)O)cnn2-c2cccc(-c3cccc(OCc4ccc(F)cc4)c3)c2)nn1 (stereo not shown) [Example 223, 1-(3′-((4-Fluorobenzyl)oxy)-[1,1′-biphenyl]-3-yl)-5-(2-(1-methyl-1H-1,2,3-triazol-4-yl)cyclopropyl)-1H-pyrazole-4-carboxylic acid] | 100 to 1000 | 100 to 1000 | 
Cn1cc([C@@H]2C[C@H]2c2c(C(=O)O)cnn2-c2cccc(-c3cccc(OCC4CCCSC4)c3)c2)nn1 (mixture of isomers) [Example 144, 5-((1,2-trans)-2-(1-Methyl-1H-1,2,3-triazol-4-yl)cyclopropyl)-1-(3′-((tetrahydro-2H-thiopyran-3-yl)methoxy)-[1,1′-biphenyl]-3-yl)-1H-pyrazole-4-carboxylic Acid] | 10 to 100 | 10 to 100 | 
Cn1cc(C2CC2c2c(C(=O)O)cnn2-c2cccc(-c3cccc(OCC4CCN(C(=O)OC(C)(C)C)CC4)c3)c2)nn1 (stereo not shown) [Example 167, 1-(3′-((1-(tert-Butoxycarbonyl)piperidin-4-yl)methoxy)-[1,1′-biphenyl]-3-yl)-5-(2-(1-methyl-1H-1,2,3-triazol-4-yl)cyclopropyl)-1H-pyrazole-4-carboxylic acid] | 10 to 100 | 100 to 1000 | 
Cn1cc([C@@H]2C[C@H]2c2c(C(=O)O)cnn2-c2cccc(-c3cccc(OCC4CCC(F)(F)CC4)c3)c2)nn1 (racemic) [Example 145, 1-(3′-((4,4-Difluorocyclohexyl)methoxy)-[1,1′-biphenyl]-3-yl)-5-((1,2-trans)-2-(1-methyl-1H-1,2,3-triazol-4-yl)cyclopropyl)-1H-pyrazole-4-carboxylic acid] | 10 to 100 | 100 to 1000 | 
CCC[C@@H]1CCCCN1C(=O)c1cccc(-c2cccc(-n3ncc(C(=O)O)c3C3CC3c3cnn(C)c3)c2)c1 (stereo partly drawn) [Example 213, 5-(2-(1-Methyl-1H-pyrazol-4-yl)cyclopropyl)-1-(3′-((R)-2-propylpiperidine-1-carbonyl)-[1,1′-biphenyl]-3-yl)-1H-pyrazole-4-carboxylic Acid] | 10 to 100 |  | 100 to 1000
CC(Oc1cccc(-c2cccc(-n3ncc(C(=O)O)c3[C@H]3C[C@@H]3c3cn(C)nn3)c2)c1)C1CCCCC1 (single isomer, unassigned) [Example 191] | 100 to 1000 |  | 100 to 1000

Continued, in another order:

IC50 [2] [nM] | SMILES | EC50 [1] [nM] | EC50 ([1]; BEAS-2B, 48 h) [nM]
10 to 100 | Cn1cc(C2CC2c2c(C(=O)O)cnn2-c2cccc(-c3cccc(OC4CCOCC4)c3F)c2)nn1 (stereo not shown) [Example 234, 1-(2′-Fluoro-3′-((tetrahydro-2H-pyran-4-yl)oxy)-[1,1′-biphenyl]-3-yl)-5-(2-(1-methyl-1H-1,2,3-triazol-4-yl)cyclopropyl)-1H-pyrazole-4-carboxylic Acid] | 1000 to 10000 | 
100 to 1000 | Cn1cc(C2CC2c2c(C(=O)O)cnn2-c2cccc(-c3cccc(CCC4CCCCC4)c3)c2)nn1 (stereo not shown) [Example 233, 1-(3′-(2-Cyclohexylethyl)-[1,1′-biphenyl]-3-yl)-5-(2-(1-methyl-1H-1,2,3-triazol-4-yl)cyclopropyl)-1H-pyrazole-4-carboxylic Acid] | 1 to 10 | 
10 to 100 | CC(Oc1cccc(-c2cccc(-n3ncc(C(=O)O)c3[C@H]3C[C@@H]3c3cn(C)nn3)c2)c1)C1CCCCCC1 (mixture of isomers) [Example 230, 1-(3′-(1-Cycloheptylethoxy)-[1,1′-biphenyl]-3-yl)-5-((1,2-trans)-2-(1-methyl-1H-1,2,3-triazol-4-yl)cyclopropyl)-1H-pyrazole-4-carboxylic acid] | 1 to 10 | 
10 to 100 | CC(Oc1cccc(-c2cccc(-n3ncc(C(=O)O)c3C3CC3c3cn(C)nn3)c2)c1)c1ccccc1 (stereo not shown) [Example 235, 5-(2-(1-Methyl-1H-1,2,3-triazol-4-yl)cyclopropyl)-1-(3′-(1-phenylethoxy)-[1,1′-biphenyl]-3-yl)-1H-pyrazole-4-carboxylic Acid] | 100 to 1000 | 
10 to 100 | Cn1cc(C2CC2c2c(C(=O)O)cnn2-c2cccc(-c3cccc(C(=O)C4CCCCC4)c3)c2)nn1 (stereo not shown) [Example 243, 1-(3′-(Cyclohexanecarbonyl)-[1,1′-biphenyl]-3-yl)-5-(2-(1-methyl-1H-1,2,3-triazol-4-yl)cyclopropyl)-1H-pyrazole-4-carboxylic Acid] | 100 to 1000 | 
